Test results taken from US20230097253A1, “NOVEL QUINAZOLINE COMPOUND AS THERAPEUTIC AGENT FOR METABOLIC DISORDERS” (BIOWAY., INC, priority 2020, published 2023).

Legend:
MRC5 cells = test: Cytotoxicity in normal cells, CCK8 analysis; format: cell-based; conditions: 0.5-100 μM, 24 hours, CCK8, compared with the control group, FIG. 2
Experimental: For confirmation of cytotoxicity in normal cells, MRC (i.e., normal lung cells) were cultured in an incubator set at 37° C. with 95% humidity and 5% CO2.
Additionally, MRC5 cells were proliferated to a confluency of 70-80% on a plate using a growth medium (Minimum Essential Medium (MEM) supplemented with 10% fetal bovine serum (FBS), 100 U/ml of penicillin, and 100 μg/ml of streptomycin), and then used for the experiment.
In order to confirm the cytotoxicity of the compound according to an embodiment of the present invention, CCK8 analysis was performed for the prepared MRC5 cells.
First, after culturing MRC5 cells to 70-80% confluency in a 24-well plate, the test material was diluted in a culture medium except for the control group and treated with 0.5 μM, 2.5 μM, 10 μM, 20 μM, 40 μM, 80 μM, and 100 μM.
After 24 hours of treatment of the test material, CCK8 solution was dispensed 10 μL per well and incubated for 2 hours in a state where the light was blocked.
After 2 hours, 200 μL of the culture solution from each well was transferred to a 96 well plate and absorbance was measured at 450 nm.

[1] = tested on: steatosis-induced Huh7 cells; test: Protein expression levels (western blot) for MOA confirmation in steatosis-induced liver cells; format: cell-based; conditions: 250 μM PA, 0.25-40 μM compound, 24 hours, FIG. 1
Experimental: An experiment to confirm the expression levels of proteins in steatosis-induced liver cells was conducted as follows.
To determine the protein expression level for MOA confirmation in steatosis-induced liver cells BW-3290 of the present invention, Huh7 cells were cultured in an incubator set at 37° C., 95% humidity, and 5% CO2.
Additionally, Huh7 cells were proliferated to a confluency of 80-90% on a plate using a growth medium (Dulbecco's modified Eagle's medium (DMEM) supplemented with 10% fetal bovine serum (FBS), 100 U/ml of penicillin, and 100 μg/ml of streptomycin), and then used for the experiment.
To induce steatosis in Huh-7 cells in each well except for control cells, the Huh-7 cells were treated with PA bound to 2% BSA at a concentration of 250 μM except for the control, and the control cells were pretreated with 2% BSA without FA.
The cells in each well were treated with the compounds of the present invention, R- or S-form of BW-3290, 0.25 μM, 0.5 μM, 1 μM, 5 μM, 10 μM, 20 μM, and 40 μM and then cultured for 24 hours. The control cells and PA treated cells were treated with DMSO. All media were aspirated and the cells were gently washed 3 times with cold PBS.
A cold lysis buffer containing 150 mM sodium chloride (NaCl), 5 mM ethylenediaminetetraacetic acid (EDTA), pH 8.0, […] 4-(2-hydroxyethyl)-1-piperazineethanesulfonic acid (HEPES), 1% nonylphenoxypolyethoxylethanol (NP-40), 2 μg/mL aprotinin, 1 μM pepstatin A, 10 μM leupeptin, 1 mM sodium fluoride (NaF), 0.2 mM sodium orthovanadate ([…]), and 1 μM phenylmethylsulfonyl fluoride (PMSF) was added thereto.
A whole cell lysate was collected and gently pipetted at least 10 times to ensure complete lysis. The sample was incubated on ice for 20 minutes and centrifuged 4° C. at 13,000 rpm, for 20 minutes. The supernatant was collected, 5× sodium dodecyl sulfate (SDS) sample buffer containing 50 mM Tris-CI (pH 6.8), 2% SDS, 0.1% bromopheol blue, and 10% glycerol was added to the sample, and boiled at 95° C. for 5 minutes.
The wells of 10% SDS-polyacrylamide gel electrophoresis (SDS-PAGE) were loaded with the same amount of a protein along with the molecular weight marker. The gel was electrophoresed at 100 V for 30 minutes in an electrophoresis chamber (Bio-Rad Laboratories, Hercules, Calif., USA).
A polyvinylidene fluoride (PVDF) membrane (MilliporeSigma, Burlington, Mass., USA) was activated with methanol (MeOH) for 1 minute and washed with a transfer buffer containing 25 mM Tris, 190 mM glycine, and 20% MeOH. The gel was placed in the transfer buffer for 10 minutes.
The transfer sandwich (in the order of paper, gel, membrane, and paper) was assembled and it was checked whether no air bubbles were trapped in the transfer sandwich. The transfer sandwich was placed in a transfer tank (Bio-Rad Laboratories) and ice cubes were placed in the transfer tank to prevent the transfer buffer from being heated. The protein was transferred from the gel to the PVDF membrane at 100 V for 30 minutes.
After washing the PVDF membrane with distilled water, the membrane was blocked for 1 hour at room temperature with a blocking buffer prepared by 5% skim milk (Difco Laboratories, Franklin Lakes, N.J., USA) in TBST containing 0.1% tween 20 (TBST, Sigma-Aldrich).
The membrane was incubated in a buffer in which the primary antibody was appropriately diluted. The membrane of fatty acid synthase (FAS), phosphor-AMP-activated protein kinase (p-AMPK), SIRT1, and SIRT3 was washed 3 times with TBST for 5 minutes each.
The membrane was incubated with a recommended dilution of horseradish peroxidase (HRP)-conjugated secondary mouse antibody in blocking buffer at room temperature for 1 hour.
The membrane was washed 5 times with TBST for 5 minutes each. Excess reagent was removed and the membrane was covered with a clear plastic wrap.
ECL prime western blotting detection reagent (GE Healthcare, Chicago, Ill., USA) was applied according to the manufacturer's recommendations. […]

SMILES	cytotoxicity in normal cells (MRC5 cells)	SIRT1 protein expression level [1]	SIRT3 protein expression level [1]	level of FAS (fat synthesis protein) [1]	p-AMPK protein expression level [1]
CC(C)C(Nc1ncnc2nc[nH]c12)c1nc2cccc(Cl)c2c(=O)n1-c1ccccc1 (racemic) [RS-form, 2-(1-((7H-purin-6-yl)amino)-2-methylpropyl)-5-chloro-3-phenylquinazolin-4(3H)-one]	showed some toxicity	–	–	–	–
CC(C)[C@@H](Nc1ncnc2nc[nH]c12)c1nc2cccc(Cl)c2c(=O)n1-c1ccccc1 [R-form of BW-3290, (R)-2-(1-((7H-purin-6-yl)amino)-2-methylpropyl)-5-chloro-3-phenylquinazolin-4(3H)-one]	did not show toxicity	increased	increased	decreased in a concentration-dependent manner	increased
CC(C)[C@H](Nc1ncnc2nc[nH]c12)c1nc2cccc(Cl)c2c(=O)n1-c1ccccc1 [S-form, (S)-2-(1-((7H-purin-6-yl)amino)-2-methylpropyl)-5-chloro-3-phenylquinazolin-4(3H)-one]	showed some toxicity	increased	increased	–	increased
